Assay results from US20170307610A1, “COMPOUNDS THAT BIND DYSTROGLYCAN AND USES THEREOF” (OREGON HEALTH & SCIENCE UNIVERSITY, priority 2014, published 2017).

Assays:
[1] = tested on: E3D1cre19 MECs (β1 Int−/− or β1 Int+); test: Laminin internalization in β1 integrin-deleted or re-expressing cells, flow cytometry; format: cell-based, mouse
Text: The integrin family of ECM receptors is expressed in the DG−/− cell population (MepG-vec and MepL-vec cell lines, FIG. 11A), but are apparently unable to mediate significant laminin internalization alone (FIG. 7B). To directly test the role of integrins in laminin internalization, an MEC cell line containing an engineered β1 integrin (β1 int) deletion, E3D1cre19 (β1 Intl−/−) was used (cre19-vec, FIG. 11A, see Example 10 infra). These β1 int−/− cells were infected with the empty vector retrovirus or with a WT β1 int expressing retrovirus. The re-expression of WT β1 integrin in β1 int−/− cells produced a modest but statistically insignificant change ([…]) in laminin internalization (MFI β1 Intl−=21.4±3; β1 Int+=26.8±1.2; n=6, p=0.17) (FIG. 7D). […] Therefore, although the β1 integrins are not required for the majority laminin internalization, they can enhance it, possibly as co-receptors with DG (Leonoudakis D et al, 2010 supra; Weir M L et al, 2006 supra).
(§1) Cell culture—Primary mammary epithelial cells from control or ΔDGK14-Cre mid-pregnant mice were obtained as previously described (Weir et al, 2006 supra). DG-knockout (MEpG and MEpL cells), and WT E3D1 mammary epithelial cells were established as described previously (Weir et al, 2006 supra) from floxed-DG mice. β1 int-knockout (E3D1 cre19) MECs were established from floxed -β1 int primary MECS, as above. MECs were grown in DME/F12, 2% FBS, 10 μg/ml insulin and 5 ng/ml EGF (BD Biosciences, San Jose, Calif., USA). […] These cultures produced >95% astrocytes as determined by staining with GFAP astrocyte marker antibody.
(§2) Flow Cytometry—Cells were plated in 12 well plates at 200,000 cells/well. […] Using a BD FACScan flow cytometer (BD Biosciences, San Jose, Calif., USA), 10,000 cells/well were counted, background fluorescence from the cell counts with no added laminin subtracted and the mean fluorescence intensity values reported. […]

MEpG MECs (DG−/− or DG+) = test: Laminin internalization in dystroglycan-deleted or re-expressing cells, flow cytometry; format: cell-based, mouse; details: n=6
Text: Genetic manipulation of laminin receptor expression was employed in order to identify the specific receptor(s) mediating laminin internalization. […] To test the role of DG in laminin internalization, an MEC cell line containing an engineered dystroglycan deletion (MEpG) was used (Weir M L et al, 2006 supra). The MEpG cell line was infected with retroviral empty vector (creating control DG−/− cells) or retrovirus expressing DG (creating DG+ cells). Immunoblotting confirmed the expected presence or absence of DG expression in these cell types (FIG. 11A). […] The compiled mean fluorescence intensity (MFI) data of cells expressing DG was nearly four-fold higher than cells lacking DG expression (DG+=18.04±4.6; DG−/−=4.84±1.43, n=6, FIG. 7C). Therefore, the majority of laminin internalization observed in functionally normal mammary epithelial cells appeared to depend on dystroglycan function.
as §1, with “USA). Human DG, β1 int, or wedge β1 int genes (Luo B H et al, Proc Natl Acad Sci USA 102, 3679-3684 (2005); incorporated by reference herein) were cloned into the retroviral expression vector, pBMN-IRES-PURO as described previously (Weir et al, 2006 supra) and verified by sequencing.” for “USA).”
as §2

[2] = tested on: MDA-MB-231 human breast cancer cells; test: Laminin internalization in vector or LARGE expressing cells, flow cytometry; format: cell-based
Text: (§3) Loss of DG's laminin binding function is a cause of some congenital muscular dystrophies (CMDs) and is a frequent defect in cancers including those of the breast, prostate, colon, and brain (Akhavan A et al, 2012 supra; Beltran-Valero de Bernabe et al, 2009 infra). This loss of function arises from altered glycosylation of DG and can be restored in many carcinoma and glioblastoma cells by expression of the enzyme LARGE, a glycosyltransferase that confers laminin-binding properties to DG (Akhavan et al., 2012; Beltran-Valero de Bernabe D et al, J Biol Chem 284, 11279-11284 (2009); incorporated by reference herein. Based on these facts in light of the disclosure herein, it was hypothesized that laminin internalization would be severely disrupted in cancer cells lacking DG activity and enhanced by the restoration of such activity. This hypothesis was tested in MDA-MB-231 human breast cancer cells and LN18 human glioma cells, both of which lack DG glycosylation and function. […] Expression of LARGE restored normal glycosylation of DG as determined by western blot analysis with IIH6 antibody (FIG. 10A, LARGE) and functional interaction of DG in the laminin assembly assay (FIG. 10B, LARGE). These cells were subsequently assayed for laminin internalization by flow cytometry.
(§4) Flow Cytometry—Cells were plated in 12 well plates at 200,000 cells/well. The following day, media was changed to serum-free media with or without 10 μg/ml rhodamine laminin or 40 μg/ml FITC-dextran (500S-Sigma-Aldrich Corp., St. Louis, Mo., USA). Unless otherwise indicated, cells were incubated 18-24 hrs, washed once with PBS, and cells trypsinized. Cells were washed in 5 ml cold PBS/1 mM EDTA, pelleted, and resuspended in 1 ml PBS/1 mM EDTA. Using a BD FACScan flow cytometer (BD Biosciences, San Jose, Calif., USA), 10,000 cells/well were counted, background fluorescence from the cell counts with no added laminin subtracted and the mean fluorescence intensity values reported. Graphed data are compiled from duplicate wells from each experiment with a minimum of three separate experiments, unless indicated otherwise.

LN18 human glioma cells = test: as above; format: cell-based
Text: as §3, §4

“Rhod-Ln: laminin-111 labeled with NHS-rhodamine; dystroglycan binding reagent” was tested, and the “MFI of internalized laminin, β1 Int+ cells” value ([1]; WT β1 integrin re-expressed, n=6) was 26.8±1.2, the “MFI of internalized laminin, β1 Int−/− cells” value ([1]; empty vector, n=6) was 21.4±3 and the “increase in laminin internalization on re-expression of WT β1 integrin” value ([1]; statistically insignificant, p=0.17) was 20%. The “MFI of internalized laminin, DG+ cells” value (MEpG MECs (DG−/− or DG+); cells expressing DG, 18 hours) was 18.04±4.6, the “MFI of internalized laminin, DG−/− cells” value (MEpG MECs (DG−/− or DG+); cells lacking DG, 18 hours) was 4.84±1.43 and the “more laminin internalized by DG+ MECs than DG−/− MECs” value (MEpG MECs (DG−/− or DG+); compiled MFI) was 380%. For the same substance, the “increase in MFI of internalized laminin, LARGE vs vector” value ([2]; MDA-MB-231) was 68 fold, the “MFI of internalized laminin, LARGE expressing cells” value ([2]; MDA-MB-231 LARGE, Rhod-Ln 18 hours, n=3) was 6.82 +/−0.241 and the “MFI of internalized laminin, vector cells” value ([2]; MDA-MB-231 empty vector, Rhod-Ln 18 hours, n=3) was 0.1+/−0.014. For the same substance, the “increase in MFI of internalized laminin, LARGE vs vector” value (LN18 human glioma cells; LN18) was 10 fold, the “MFI of internalized laminin, LARGE expressing cells” value (LN18 human glioma cells; LN18 LARGE, n=3) was 1.49±0.049 and the “MFI of internalized laminin, vector cells” value (LN18 human glioma cells; LN18 empty vector, n=3) was 0.145±0.155.
